Laboratory results reported in US9540338B2, “Substituted cinnamic acid amides for treating pain” (NIPPON ZOKI PHARMACEUTICAL CO., LTD., priority 2012, dated 2017).
Marks after values point to notes of the source that are not given here. Blank lines part the entries; values can stand above or below the molecule they belong to.

What was measured:
Chung model rat = test: Analgesic efficacy test (2): Chung model rat, neuropathic pain model (allodynia, von Frey filament); type: in vivo, rats; settings: mean ± standard error
Protocol: An analgesic efficacy test was conducted using a Chung model rat, a neuropathic pain model. Nine-week old Wistar male rats were previously bred as an experimental animal, and a model rat was then prepared in accordance with the method of Kim and Chung (Pain, 50, 355-363, 1992). Specifically, left L5 spinal nerves of rats were exposed under anesthetization with pentobarbital (40 mg/kg, intraperitoneal administration), and firmly ligated with 5-0 silk yarn at L5 dorsal root ganglion peripheral side. The animals were placed in a transparent acrylic cage of which bottom was wire netted The measurement of allodynia was carried out using von Frey filament (manufactured by North Coast Medical Inc.) and a 50% reaction threshold was calculated according to an up-down method, in accordance with a method of Chaplan et al. (J. Neurosci. Method, 53, 55-63, 1994). The 50% reaction thresholds were measured twice before injury of the spinal nerve, and those animals of which thresholds were outside the standard were removed from the operation of spinal nerve injury. On or after 14 days from the spinal nerve injury, a 50% reaction threshold was measured, and those showing thresholds of 1 g or more and less than 4 g were used as experimental animal. The group was constituted by 7 or 8 rats per group so that an average of a 50% reaction threshold for each group would be nearly even.
A solution or suspension prepared by dissolving or suspending a compound of the present invention in a 0.5% (w/v) aqueous CMC-Na solution was orally administered as a test substance in a single dose. Also, a 0.5% (w/v) aqueous CMC-Na solution was administered in the same manner to the control group for nerve injury. The measurements of allodynia were carried out with the passage of time after administration, and a 50% reaction threshold (mean±standard error) of each group at action peak was calculated. In the test for significance difference, Bartlett's test was carried out in the comparison between multiple groups of the group administered with test substance with the control group for nerve injury. In the case of homoscedasticity, Dunnett's multiple comparison test of parametrics, and in the case of heteroscedasticity, Dunnett's multiple comparison test of non-parametrics were used. In all cases, significance difference was considered to be found at P<0.05 (indicated as “*” in the tables).

ddY-type mice = test: Analgesic efficacy test (1): acetic acid writhing test; type: in vivo; settings: Mus musculus, writhing number, mean ± standard error, 8 mice per group, read-out: Suppressive Rate; for inhibition in vivo at 10 mg/kg: oral single dose 10 mg/kg; for inhibition in vivo at 100 mg/kg: oral single dose 100 mg/kg
Source text: A compound of the present invention was orally administered to mice, to carry out an analgesic efficacy test according to acetic acid writhing test. As an experimental animal, 4-week old male ddY-type mice were previously bred, and thereafter 8 mice per one group were used in the experiment. A solution or suspension prepared by dissolving or suspending a compound of the present invention in a 0.5% (w/v) aqueous CMC-Na solution was orally administered as a test substance in a single dose. While, to a control group, a 0.5% (w/v) aqueous CMC-Na solution was administered in the same manner After 25 minutes from administration, the mice were intraperitoneally administered with a 0.7% (v/v) acetic acid/physiological saline at the dose of 10 mL/kg. From 5 minutes thereafter, writhing number in a 10-minute period was counted, and a suppressive rate for each individual (mean±standard error) was calculated by the following formula: […]
In the test for significance difference, Bartlett's test was carried out in the comparison between multiple groups of the group administered with test substance with the control group. In the case of homoscedasticity, Dunnett's multiple comparison test of parametrics, and in the case of heteroscedasticity, Dunnett's multiple comparison test of non-parametrics were used. In addition, in the test of dose dependency, Jonckheere-Terpstra's test was used. In all cases, significance difference was considered to be found at P<0.05 (indicated as “*” in the table).

[1] = oral 1 mg/kg, measurement point 60 minute (action peak)
[2] = oral 10 mg/kg, measurement point 60 minute (action peak)
[3] = oral 1 mg/kg, measurement point 90 minute (action peak)
[4] = oral 10 mg/kg, measurement point 90 minute (action peak)
[5] = oral 1 mg/kg, measurement point 30 minute (action peak)
[6] = oral 10 mg/kg, measurement point 30 minute (action peak)

melting point: 99 to 100 °C
Compound: CN(C)CCCNC(=O)/C=C/c1ccccc1F.Cl [Compound 12, (E)-N-(3-Dimethylaminopropyl)-3-(2-fluorophenyl)-2-propenamide hydrochloride]
50% Reaction Threshold, Group Administered with Test Substance, After Administration (Chung model rat; [1]): 4.64 ± 0.70 g
50% Reaction Threshold, Group Administered with Test Substance, After Administration (Chung model rat; [2]): 5.00 ± 1.17 g
inhibition in vivo at 10 mg/kg (ddY-type mice): -4.3 ± 12%
inhibition in vivo at 100 mg/kg (ddY-type mice): 49.4 ± 14.5%

melting point: 95 to 96 °C
Compound: O=C(/C=C/c1ccccc1F)NCCc1ccncc1 [Compound 3, (E)-3-(2-Fluorophenyl)-N-[2-(4-pyridyl)ethyl]-2-propenamide]
50% Reaction Threshold, Group Administered with Test Substance, After Administration (Chung model rat; [3]): 6.74 ± 1.04* g
50% Reaction Threshold, Group Administered with Test Substance, After Administration (Chung model rat; [4]): 10.06 ± 1.60* g
inhibition in vivo at 10 mg/kg (ddY-type mice): 44.4 ± 11.1%
inhibition in vivo at 100 mg/kg (ddY-type mice): 59 ± 8.1%

melting point: 112 to 113 °C
Compound: O=C(/C=C/c1ccccc1F)NCCN1CCOCC1 [Compound 5, (E)-3-(2-Fluorophenyl)-N-(2-morpholinoethyl)-2-propenamide]
50% Reaction Threshold, Group Administered with Test Substance, After Administration (Chung model rat; [3]): 4.91 ± 0.73 g
50% Reaction Threshold, Group Administered with Test Substance, After Administration (Chung model rat; [4]): 8.68 ± 1.91* g
inhibition in vivo at 10 mg/kg (ddY-type mice): 34.8 ± 10.3%
inhibition in vivo at 100 mg/kg (ddY-type mice): 95.7 ± 3.1%

melting point: 153 to 154 °C
Compound: Cl.O=C(/C=C/c1ccccc1F)NCCCN1CCOCC1 [Compound 11, (E)-3-(2-Fluorophenyl)-N-(3-morpholinopropyl)-2-propenamide hydrochloride]
50% Reaction Threshold, Group Administered with Test Substance, After Administration (Chung model rat; [1]): 11.69 ± 1.80* g
50% Reaction Threshold, Group Administered with Test Substance, After Administration (Chung model rat; [2]): 14.27 ± 0.73* g
inhibition in vivo at 10 mg/kg (ddY-type mice): 23.2 ± 12.8%
inhibition in vivo at 100 mg/kg (ddY-type mice): 68.9 ± 4.5%

melting point: 93 to 94 °C
Compound: Cn1cccc1CCNC(=O)/C=C/c1ccccc1F [Compound 8, (E)-3-(2-Fluorophenyl)-N-[2-(1-methyl-1H-pyrrol-2-yl)ethyl]-2-propenamide]
50% Reaction Threshold, Group Administered with Test Substance, After Administration (Chung model rat; [3]): 4.37 ± 0.53 g
50% Reaction Threshold, Group Administered with Test Substance, After Administration (Chung model rat; [4]): 5.57 ± 1.18* g
inhibition in vivo at 10 mg/kg (ddY-type mice): 8.5 ± 13.9%
inhibition in vivo at 100 mg/kg (ddY-type mice): 28.1 ± 8.3%

melting point: 177 to 178 °C
Compound: Cl.NCCCCNC(=O)/C=C/c1ccccc1F [Compound 14, (E)-N-(4-Aminobutyl)-3-(2-fluorophenyl)-2-propenamide hydrochloride]
50% Reaction Threshold, Group Administered with Test Substance, After Administration (Chung model rat; [1]): 12.38 ± 1.15* g
50% Reaction Threshold, Group Administered with Test Substance, After Administration (Chung model rat; [2]): 13.61 ± 0.96* g
inhibition in vivo at 10 mg/kg (ddY-type mice): 46.3 ± 11.1%
inhibition in vivo at 100 mg/kg (ddY-type mice): 76.8 ± 4.1%

melting point: 84 to 85 °C
Compound: O=C(/C=C/c1ccccc1F)NCCN1CCCCC1 [Compound 4, (E)-3-(2-Fluorophenyl)-N-[2-(1-piperidyl)ethyl]-2-propenamide]
50% Reaction Threshold, Group Administered with Test Substance, After Administration (Chung model rat; [5]): 3.98 ± 0.21 g
50% Reaction Threshold, Group Administered with Test Substance, After Administration (Chung model rat; [6]): 7.35 ± 0.95* g
inhibition in vivo at 10 mg/kg (ddY-type mice): 47 ± 7.8%
inhibition in vivo at 100 mg/kg (ddY-type mice): 49 ± 9.2%

melting point: 115 to 116 °C
Compound: O=C(/C=C/c1ccccc1F)NCc1cccnc1 [Compound 2, (E)-3-(2-Fluorophenyl)-N-(3-pyridylmethyl)-2-propenamide]
50% Reaction Threshold, Group Administered with Test Substance, After Administration (Chung model rat; [5]): 4.85 ± 0.78 g
50% Reaction Threshold, Group Administered with Test Substance, After Administration (Chung model rat; [6]): 7.76 ± 1.30* g
inhibition in vivo at 10 mg/kg (ddY-type mice): 39.9 ± 10.4%
inhibition in vivo at 100 mg/kg (ddY-type mice): 39.9 ± 10%

Compound: O=C(/C=C/c1ccccc1F)NCCc1c[nH]cn1 [Compound 18, (E)-3-(2-Fluorophenyl)-N-[2-(1H-imidazol-4-yl)ethyl]-2-propenamide]
50% Reaction Threshold, Group Administered with Test Substance, After Administration (Chung model rat; [3]): 10.92 ± 1.33* g
50% Reaction Threshold, Group Administered with Test Substance, After Administration (Chung model rat; [4]): 11.44 ± 1.95* g
inhibition in vivo at 10 mg/kg (ddY-type mice): 54.3 ± 13.2%
inhibition in vivo at 100 mg/kg (ddY-type mice): 62.3 ± 14.6%
melting point: 152 to 153 °C

melting point: 84 to 85 °C
Compound: O=C(/C=C/c1ccccc1F)NCCCN1CCN(C2CCCCC2)CC1 [Compound 7, (E)-N-[3-(4-Cyclohexylpiperazin-1-yl)propyl]-3-(2-fluorophenyl)-2-propenamide]
50% Reaction Threshold, Group Administered with Test Substance, After Administration (Chung model rat; [3]): 9.05 ± 1.80 g
50% Reaction Threshold, Group Administered with Test Substance, After Administration (Chung model rat; [4]): 12.70 ± 1.16* g
inhibition in vivo at 10 mg/kg (ddY-type mice): 41.5 ± 17.2%
inhibition in vivo at 100 mg/kg (ddY-type mice): 68.4 ± 8%

melting point: 113 to 114 °C
Compound: O=C(/C=C/c1ccccc1F)NCCN1CCN(C2CCCCC2)CC1 [Compound 6, (E)-N-[2-(4-Cyclohexylpiperazin-1-yl)ethyl]-3-(2-fluorophenyl)-2-propenamide]
50% Reaction Threshold, Group Administered with Test Substance, After Administration (Chung model rat; [3]): 10.87 ± 1.24* g
50% Reaction Threshold, Group Administered with Test Substance, After Administration (Chung model rat; [4]): 14.06 ± 0.61* g
inhibition in vivo at 10 mg/kg (ddY-type mice): 29.6 ± 12.8%
inhibition in vivo at 100 mg/kg (ddY-type mice): 70.4 ± 6.1%
